Results from patent US5663177A (SmithKline Beecham Corporation, priority 1995, dated 1997).

Assays:
[1] = tested on: P388; experiment: Cytotoxicity IC50, P388; type: cell-based; conditions: Mus musculus
[2] = tested on: wild-type (AUX-B 1) Chinese Hamster ovary cells; experiment: CHO Microtiter Cytotoxicity Assay (XTT), wild-type (AUX-B1); type: cell-based; conditions: Cricetulus griseus, AuxB1, 72 h, 3 days, read-out: Cytotoxicity IC50, Wildtype (AUX-B1)
Procedure: (§1) The in vitro assays used to test the compound of the present invention for antitumor activity are well-known. A generalized description of these assays follows.
(§2) Chinese Hamster ovary cells are grown in Alpha MEM Medium with L-glutamine and nucleosides and containing 10% fetal bovine serum and 100 units per mL penicillin-streptomycin in 75 cm^2 canted neck tissue culture flasks. They are harvested from these flasks using 0.5% trypsin. Microtiter plates (96-well, sterile, flat bottom) (Corning 25860) are seeded with 1.6×10^3 wild-type (AUX-B 1) Chinese Hamster ovary cells per well or 2×10^3 multidrug resistant (CH^R C5) Chinese Hamster ovary cells per well. The plates are incubated at 37° C., 5% CO2 overnight to allow the cells to attach. The outside wells of each plate are not used, due to evaporation during the incubation time. They are filled with medium and used as blanks. The next day, the medium is aspirated from the wells and 180 μL of fresh medium is added to each well. Compounds are diluted from stock solution in DMSO into fresh medium to a 10X concentration containing 2% DMSO. Twenty μL of this is then added to the 180 μL, of fresh medium in the wells. The plates are then incubated for another 3 days at 37° C., 5% CO2. Eight mg of XTT (SIGMA X-4251) is dissolved in 100 μL of DMSO which is then added to 3.9 mL of phosphate buffered saline without cations (PBS). Phenazine methosulfate (SIGMA P-9625) is dissolved in PBS to a concentration of 3 mg/mL and 20 μL of this is added to the XTT solution. Fifty μL of this XTT/PMS solution is added to each well of the microliter plate and the plates are incubated for 90 minutes at 37° C., 5% CO2 (until the OD450 ~1.0). The plate is then read on a UV Max plate reader, using wells without cells (i.e., containing only 200 μL of medium and 50 μL of XTT/PMS solution) as a background control.

[3] = tested on: P388; experiment: Efficacy in mouse tumor model P388 (in vivo)
Procedure: The cytotoxicity and efficacy of the compound of the present invention was also tested in vivo using the well-known P388 mouse tumor model.

[4] = tested on: solid tumor cancers, particularly ovarian cancer and non-small cell lung carcinoma; conditions: humans; cited from earlier work
[5] = tested on: multidrug resistant (CH^R C5) Chinese Hamster ovary cells; experiment: CHO Microtiter Cytotoxicity Assay (XTT), multidrug resistant (CH^R C5); type: cell-based; conditions: Cricetulus griseus, CHRC5, 72 h, 3 days
Procedure: as §1, §2

[6] = background statement; cited from earlier work
[7] = background statement; cited from earlier work; remark: listed apart in the source
[8] = tested on: topoisomerase II; conditions: background statement; cited from earlier work
[9] = tested on: topoisomerase I; conditions: background statement; cited from earlier work

SMILES | IC50 [1] [nM] | IC50 [2] [nM] | IC50 [5] [nM] | water solubility [7] | further results
CC[C@@]1(O)C(=O)OCc2c1cc1n(c2=O)Cc2cc3c(CN(C)C)c(O)ccc3nc2-1 [Topotecan, 9-dimethylaminomethyl-10-hydroxycamptothecin] | 30 | 790 | 2300 |  | Efficacy in Mouse Tumor Models, % Inc. in Lifespan, P388 ([3]; dose 14.4 mg/kg, route not given): 156%; efficacy in clinical tests [4]: demonstrated efficacy against several solid tumor cancers, particularly ovarian cancer and non-small cell lung carcinoma in humans
CCc1c2c(nc3ccc(OC(=O)N4CCC(N5CCCCC5)CC4)cc13)-c1cc3c(c(=O)n1C2)COC(=O)[C@]3(O)CC [CPT-11, (S)-[1,4'-bipiperidine]-1'-carboxylic acid,4,11-diethyl-3,4,12,14-tetrahydro-4-hydroxy-3, 14-dioxo-1H-pyrano[3',4':6,7]indolizino[1,2-b]quinolin-9-yl] |  |  |  |  | toxicity [6]: adverse toxicity profile
CC[C@@]1(O)C(=O)OCc2c1cc1n(c2=O)Cc2c-1nc1ccc(O)c3c1c2CN(C)C3 [Formula I, S-9-ethyl-2,3-dihydro-4,9-dihydroxy-2-methyl-1H,12H-benzo[ij]pyrano[3', 4':6,7]indolizino[1,2-c][2,6]naphthyridine-10,13(H,15H)-dione] | 24 | 52 | 840 |  | Efficacy in Mouse Tumor Models, % Inc. in Lifespan, P388 ([3]; dose 40 mg/kg ip): 111%; biological activity (cytotoxicity and efficacy in mouse tumor models) versus topotecan ([3]; summary of Table I): comparable to topotecan
CC[C@@]1(O)C(=O)OCc2c1cc1n(c2=O)Cc2cc3ccccc3nc2-1 [Camptothecin] | 12 | 15 | 35 | water-insoluble | effect on topoisomerase II [8]: no effect on topoisomerase II; inhibition of topoisomerase I [9]: known to inhibit topoisomerase I
CC[C@@]1(O)C(=O)OCc2c1cc1n(c2=O)Cc2cc3c(N)cccc3nc2-1 [9-aminocamptothecin, (S)-10-amino-4-ethyl-4-hydroxy-1H-pyrano[3',4':6,7]indolizino[1,2-b]quinoline-3, 14(4H,12H)-dione] |  |  |  | limited water solubility | 
